Laboratory results as given in patent publication US6703426B1, “Treatment of breast cancer” (University of Central Florida, priority 2001, dated 2004).
Read-outs that look alike come from different tables or passages of the source.

Tests used:
[1] = system: human breast cancer cells (ATCC HTB123); experiment: Cytotoxicity assay (MTS/PMS), growth inhibition of human breast cancer cells; assay type: cell-based; set-up: concentration or dose not given beside the values; details: approximately 48 hours growth with test compound
Method: The activity in human breast cancer of the novel compounds (as earlier reported) was realized by the following procedure which determines the inhibitory effect of test samples on the growth of human breast cancer cells.
(ATCC HTB123) The HTB123 cells are grown in RPMI 1640 media+10% Fetal bovine serum+4.5 g/L glucose+10 mM HEPES+1.0 mM sodium pyruvate+1% Antibiotic/Antimycotic for approximately 48 hours at 37° C./5% CO2 in the presence of the test compound.
Growth/Non-Growth of the cells (e.g., cell density) is determined using Promega's MTS/PMS assay system. MTS (3-(4,5-dimethylthiazol-2-yl)-5-(3-carboxymethoxyphenyl)-2-(4-sulfophenyl)-2H-tetrazolium, inner salt) is an aqueous compound that is reduced to soluble formazan by the presence of NADH formed by dehydrogenases present within the HTB123 cells. The absorbance of the formazan can be measured at 490 nm and is directly proportional to the number of living cells present in the culture. PMS (Phenazine Methosulfate) is added an electron coupling reagent and greatly increases the rate of reduction.
To facilitate a full understanding of the procedure the following definitions are offered:
Test wells—wells containing test sample and Diluted HTB 123 cells
Test values—absorbance of test wells
Blank wells—wells containing test sample and HTB 123 media (HHTB2-01S); used to obtain background absorbance due to test sample
Blank values—absorbance of blank wells.
Negative Control—maximal cell growth; results of test samples will be expressed as a percent of the Negative Control
Positive Control—known inhibitor of HTB123 cells; used to validate assay system
Matrix—solvent that the samples are prepared/diluted in
Assay samples of similar origin and matrix (e.g., methanol extraction, methylene chloride extraction, water soluble samples, etc.) together on the same plate in order to reduce the number of steps performed per plate.
Blank values will be determined for each sample to account for any color contribution due to the sample itself. These blank wells must contain the same amount of sample plus HTB123 media (no cells). After completion of MTS/PMS reaction blank values will be subtracted from the test value to obtain a net absorbance that will be used to calculate cell density.
All results are based upon a comparison to the Negative Control value of the plate. The Negative Control must contain the same amount of matrix (e.g., solvent) to offset any destructive effect the matrix may have on the growth of the HTB123 cells (allows for baseline values to be set).
For most samples, a HTB123 cell growth (diluted two to four-fold, depending upon the appearance of the inoculum*) of approximately 48 hours followed by and incubation of 3 hours with the MTS/PMS Reagent is optimal.
*Due to the nature of the HTB123 cells it is very difficult to obtain accurate cell densities. Continuation of the HTB123 cell line typically consists of the dilution of mature cells at two or three-fold into fresh media and growth at 37° C./5% CO2 for two to three days.
In order to establish the accuracy of this assay a Positive Control consisting of 50 μM Methotrexate should […] 90% of the Negative Control (HTB123 cells are somewhat resistant to methotrexate) is utilized.

white mice [2] = experiment: Animal toxicity bioassay (acute toxicity, LD50); assay type: in vivo; details: intraperitoneal injection, observed 14 days
[3] = Animal toxicity bioassay (acute toxicity, LD50); assay type: in vivo; details: both sexes, mouse, in vivo, ip, white mice, intraperitoneal injection, observed 14 days
[4] = Solubility in solvents and water; assay type: physicochemical; details: for Solubility in organic solvents: organic solvents as listed
Stability in solution = assay type: physicochemical; details: solution heated or stored for a long time; decomposes with formation of OF-12
[5] = background statement; cited from earlier work
white mice [6] = details: same bioassay system (JZKEDZ 6,1,1980); cited from earlier work
[7] = read-out: LD50 (animal toxicity)

SMILES	Activity (ATCC HTB123) [1] [%]	percent activity against human breast carcinoma [1] [%]	LD50 at 14 days [3, 7] [mg/kg]	Solubility in organic solvents [4]	other results
COC(=O)/C(=C/C(=O)c1ccccc1)NN=C1c2ccccc2-c2ccccc21 [1F-04, 2-(N′-Fluoren-9-ylidene-hydrazino)-4-oxo-4-phenyl-but-2-enoic acid methyl ester]	93	–	–	–	LD50 (white mice [2]): >1000 mg/kg
COC(=O)C1(O)C(C(=O)c2ccc(C)cc2)=C(O)C(=O)N1c1ccc(C)cc1C (centres unmarked) [1F-07, 1-(2,4-Dimethyl-phenyl)-2,4-dihydroxy-3-(4-methyl-benzoyl)-5-oxo-2,5-dihydro-1H-pyrrole-2-carboxylic acid methyl ester]	–	100	> 500	highly soluble in DMSO, acetonitrile, slightly soluble in dichloroethane, benzene, insoluble in hexane tetrachloromethane	Solubility in water [4]: insoluble
COc1ccc(C(=O)C(=NNc2ccccc2)C(=O)C(=O)O)cc1 [3F-10, 4-(4-Methoxy-phenyl)-2,4-dioxo-3-(phenyl-hydrazono)-butyric acid]	–	100	< 750	highly soluble in DMSO, DMFA, slightly soluble in chloroform, dichloroethane; insoluble in hexanes	–
CCOC(=O)C(=O)C(=NNc1ccccc1)C(=O)c1ccc(Cl)cc1 [3F-11, 4-(4-Chloro-phenyl)-2,4-dioxo-3-(phenyl-hydrazono)-butyric acid ethyl ester]	–	100	> 2000	–	–
COc1c(F)c(F)c(C(=O)C=C(O)C(=O)O)c(F)c1F [3F-15, 2-Hydroxy-4-oxo-4-(2,3,5,6-tetrafluoro-4-methoxy-phenyl)-but-2-enoic acid]	–	100	> 200	–	–
Cc1ccc(C(=O)C2=NN(c3ccccc3)C(=O)C2(O)O)cc1 [3F-16, 4,4-Dihydroxy-5-(4-methyl-benzoyl)-2-phenyl-2,4-dihydro-pyrazol-3-one]	–	100	> 500	highly soluble in DMSO, dioxane	Solubility in water [4]: insoluble
CCOc1ccc(C(Cl)=CC(=NN=C2c3ccccc3-c3ccccc32)C(=O)OC)cc1 [3F-19, 4-Chloro-4-(4-ethoxy-phenyl)-2-(fluoren-9-ylidene-hydrazono)-but-3-enoic acid methyl ester]	100	–	–	–	LD50 at 14 days ([3]; read-out: LD50): > 200 mg/kg
COC(=O)C(=CC(=O)C(C)(C)C)NN=C1c2ccccc2-c2ccccc21 [OF-06, 2-(N′-Fluoren-9-ylidene-hydrazino)-5,5-dimethyl-4-oxo-hex-2-enoic acid methyl ester]	–	100	–	highly soluble in DMSO, DMFA, dichloroethane, acetonitrile, slightly soluble in ethanol, tetrachloromethane, insoluble in hexane	Solubility in water [4]: insoluble
CCOc1ccc(C(=O)CC(O)(NN=C2c3ccccc3-c3ccccc32)C(=O)OC)cc1 (centres unmarked) [OF-13, 4-(4-Ethoxy-phenyl)-2-(N′-fluoren-9-ylidene-hydrazino)-2-hydroxy-4-oxo-butyric acid methyl ester]	100	–	–	highly soluble in DMSO, DMFA, dichloroethane, acetonitrile, insoluble in hexane	LD50 (white mice [2]): >1500 mg/kg; Stability in solutions (Stability in solution): not stable in solutions
COC(=O)/C(=C/C(=O)c1ccccc1)N/N=C(\C)c1ccc(Cl)cc1 [OF-20, 2-{N′-[1-(4-Chloro-phenyl)-ethylidene]-hydrazino}-4-oxo-4-phenyl-but-2-enoic acid methyl ester]	83	–	–	–	–
CC(=O)O[C@H]1C(=O)[C@@]2(C)[C@H]([C@H](OC(=O)c3ccccc3)[C@]3(O)C[C@H](OC(=O)[C@H](O)[C@@H](NC(=O)c4ccccc4)c4ccccc4)C(C)=C1C3(C)C)[C@]1(OC(C)=O)CO[C@@H]1C[C@@H]2O [Taxol]	–	–	–	–	Solubility in water [5]: insoluble in water; intraperitoneal LD50 dose in mice (white mice [6]): 218 mg/kg
